Patent publication US20230265151A1, “GIP/GLP1 CO-AGONIST COMPOUNDS” (priority 2020, published 2023)
Read-outs that look alike come from different tables or passages of the source. *1 amine or outer side, *2 acyl side, *3 side chain or, on linkers, in order; H or OH if unused. Where a SMILES comes first, the peptide text is derived from it. Side-chain parts run from the residue outwards. [ ]: non-standard residue; d: D form. The star is where a group is joined. αMePhe(2-F) = C[C@](N)(Cc1ccccc1F)C(=O)O; γGlu = O=C(O)[C@H](CCC(=O)[*:2])N[*:1]; C14 diacid = O=C(O)CCCCCCCCCCCCC(=O)*; αMeY = C[C@](N)(Cc1ccc(O)cc1)C(=O)O; αMeL = CC(C)C[C@](C)(N)C(=O)O; Orn = NCCC[C@H](N)C(=O)O; AEEA = NCCOCCOCC(=O)O; Aib = CC(C)(N)C(=O)O

What was measured:
Type in all cases: cell-based
[1] = biological target: T1, hGIPR (Homo sapiens, UniProt P48546); experiment: Functional cAMP formation (HTRF) in HEK-293 clonal cells expressing hGIPR, 0.1% bovine casein, without or with 1.0% human serum albumin; conditions: for Emax: HEK293, 0.1% bovine casein and 1.0% human serum albumin, percent of maximal response to GIP(1-42)NH2, read-out: hGIPR Emax, % ± SEM; for EC50: geometric mean
T1 construct: expressed in transfected cells
T1 sequence (P48546 22-466): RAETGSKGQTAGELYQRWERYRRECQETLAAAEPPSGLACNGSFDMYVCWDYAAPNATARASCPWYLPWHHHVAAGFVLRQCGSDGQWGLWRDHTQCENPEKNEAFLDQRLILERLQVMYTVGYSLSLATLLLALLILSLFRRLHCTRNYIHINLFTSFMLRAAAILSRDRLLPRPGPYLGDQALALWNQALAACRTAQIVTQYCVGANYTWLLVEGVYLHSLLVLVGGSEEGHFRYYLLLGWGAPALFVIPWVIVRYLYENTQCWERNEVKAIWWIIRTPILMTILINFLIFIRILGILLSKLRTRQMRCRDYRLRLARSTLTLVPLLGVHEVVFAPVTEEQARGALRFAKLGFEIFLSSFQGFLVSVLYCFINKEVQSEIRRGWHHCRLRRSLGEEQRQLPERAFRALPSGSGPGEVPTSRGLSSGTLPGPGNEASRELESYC
In short: (§1)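 Cells were stimulated with peptide for 30 min at 37° C, then intracellular cAMP was measured by competitive HTRF (665/620 nm ratio) and converted to nM using a cAMP standard curve. Relative EC50 and Emax came from four-parameter logistic fits of percent maximal response against peptide concentration.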

[2] = biological target: T2, hGCGR (Homo sapiens, UniProt P47871); experiment: Functional cAMP formation (HTRF) in HEK-293 clonal cells expressing hGCGR, 0.1% bovine casein, without or with 1.0% human serum albumin; conditions: geometric mean
T2 construct: expressed in transfected cells
T2 sequence (P47871 26-477): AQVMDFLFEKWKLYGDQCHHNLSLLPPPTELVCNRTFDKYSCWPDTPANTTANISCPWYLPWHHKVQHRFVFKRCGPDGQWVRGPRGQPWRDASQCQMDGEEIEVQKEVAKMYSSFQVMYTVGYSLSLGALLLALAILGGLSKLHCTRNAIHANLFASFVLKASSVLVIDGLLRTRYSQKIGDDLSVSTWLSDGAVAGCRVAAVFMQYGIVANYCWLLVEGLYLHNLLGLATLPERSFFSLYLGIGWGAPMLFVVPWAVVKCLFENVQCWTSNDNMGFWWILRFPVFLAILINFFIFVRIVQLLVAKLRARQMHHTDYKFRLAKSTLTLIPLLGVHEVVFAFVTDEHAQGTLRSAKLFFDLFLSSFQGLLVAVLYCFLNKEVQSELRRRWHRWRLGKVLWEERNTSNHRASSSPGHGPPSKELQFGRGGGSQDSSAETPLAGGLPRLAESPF
In short: as §1

[3] = biological target: hGLP-1R (Homo sapiens, UniProt P43220); experiment: Functional cAMP formation (HTRF) in HEK-293 clonal cells expressing hGLP-1R, 0.1% bovine casein, without or with 1.0% human serum albumin; parameters: expressed in transfected cells; conditions: for EC50: geometric mean, read-out: hGLP-1R EC50, nM (SEM, n); for Emax: percent of maximal response to GLP-1(7-36)NH2
hGLP-1R, sequence (P43220 24-463): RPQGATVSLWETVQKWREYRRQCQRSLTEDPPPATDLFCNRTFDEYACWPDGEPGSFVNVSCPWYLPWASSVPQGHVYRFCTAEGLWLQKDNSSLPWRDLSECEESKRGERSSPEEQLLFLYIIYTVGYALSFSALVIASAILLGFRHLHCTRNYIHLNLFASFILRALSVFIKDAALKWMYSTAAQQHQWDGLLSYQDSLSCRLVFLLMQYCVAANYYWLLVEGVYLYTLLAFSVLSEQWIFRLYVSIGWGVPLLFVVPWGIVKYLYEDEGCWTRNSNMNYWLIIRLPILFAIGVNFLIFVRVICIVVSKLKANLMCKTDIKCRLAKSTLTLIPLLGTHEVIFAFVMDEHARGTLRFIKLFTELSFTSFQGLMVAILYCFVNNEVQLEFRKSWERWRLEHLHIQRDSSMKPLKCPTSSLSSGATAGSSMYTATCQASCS
In short: as §1

[4] = 0.1% bovine casein and 1.0% human serum albumin, 37° C., read-out: hGCGR EC50, nM (SEM, n)
[5] = cAMP, incubated at 37° C., 0.1% bovine casein (no human serum albumin), read-out: hGCGR EC50, nM (SEM, n)

**Q.** For `CC[C@H](C)[C@H](NC(=O)[C@H](CC(C)C)NC(=O)[C@](C)(Cc1ccc(O)cc1)NC(=O)[C@@H](CCC(=O)O)NC(=O)[C@@H](NC(=O)[C@H](Cc1ccccc1)NC(=O)[C@H](CCC(=O)O)NC(=O)C(C)(C)NC(=O)[C@H](CCC(N)=O)NC(=O)CNC(=O)[C@H](CCCCNC(=O)COCCOCCNC(=O)COCCOCCNC(=O)CC[C@H](NC(=O)CCCCCCCCCCCCC(=O)O)C(=O)O)NC(=O)[C@H](CCCN)NC(=O)[C@H](CC(=O)O)NC(=O)[C@H](CC(C)C)NC(=O)[C@](C)(CC(C)C)NC(=O)[C@@H](NC(=O)[C@H](CO)NC(=O)[C@H](Cc1ccncc1)NC(=O)[C@H](CC(=O)O)NC(=O)[C@H](CO)NC(=O)[C@@H](NC(=O)[C@](C)(Cc1ccccc1F)NC(=O)[C@@H](NC(=O)CNC(=O)[C@H](CCC(=O)O)NC(=O)C(C)(C)NC(=O)[C@@H](N)Cc1ccc(O)cc1)[C@@H](C)O)[C@@H](C)O)[C@@H](C)CC)[C@@H](C)CC)C(=O)N[C@@H](CCC(=O)O)C(=O)NCC(=O)NCC(=O)N[C@@H](CCCCNC(=O)COCCOCCNC(=O)COCCOCCNC(=O)CC[C@H](NC(=O)CCCCCCCCCCCCC(=O)O)C(=O)O)C(=O)N[C@@H](CO)C(=O)N[C@@H](CO)C(=O)NCC(=O)N[C@@H](C)C(=O)N1CCC[C@H]1C(=O)N1CCC[C@H]1C(=O)N1CCC[C@H]1C(=O)N[C@@H](CO)C(N)=O` [Example 102], which Emax ([1]; 37° C.) is on record?
**A.** The Emax was 96.9%.

**Q.** What about the EC50 [2, 4] of the same molecule?
**A.** The EC50 was > 9950 nM.

**Q.** What about the EC50 [2, 5] of the same molecule?
**A.** The EC50 was > 9950 nM.

**Q.** What about the EC50 ([3]; cAMP, incubated at 37° C., 0.1% bovine casein (no human serum albumin)) of the same molecule?
**A.** The EC50 was 19.1 nM.

**Q.** Which results are given for `CC[C@H](C)[C@H](NC(=O)[C@H](CCCN)NC(=O)[C@H](CC(=O)O)NC(=O)[C@H](CC(C)C)NC(=O)[C@](C)(CC(C)C)NC(=O)[C@@H](NC(=O)[C@H](CO)NC(=O)[C@H](Cc1ccncc1)NC(=O)[C@H](CC(=O)O)NC(=O)[C@H](CO)NC(=O)[C@@H](NC(=O)[C@](C)(Cc1ccccc1F)NC(=O)[C@@H](NC(=O)CNC(=O)[C@H](CCC(=O)O)NC(=O)C(C)(C)NC(=O)[C@@H](N)Cc1ccc(O)cc1)[C@@H](C)O)[C@@H](C)O)[C@@H](C)CC)C(=O)N[C@@H](C)C(=O)N[C@@H](CCC(N)=O)C(=O)NC(C)(C)C(=O)N[C@@H](CCC(=O)O)C(=O)N[C@@H](Cc1ccccc1)C(=O)N[C@H](C(=O)N[C@@H](CCCCNC(=O)COCCOCCNC(=O)COCCOCCNC(=O)CC[C@H](NC(=O)CCCCCCCCCCOc1ccc(C(=O)O)cc1)C(=O)O)C(=O)N[C@@](C)(Cc1ccc(O)cc1)C(=O)N[C@@H](CC(C)C)C(=O)N[C@H](C(=O)N[C@@H](CCCCNC(=O)COCCOCCNC(=O)COCCOCCNC(=O)CC[C@H](NC(=O)CCCCCCCCCCOc1ccc(C(=O)O)cc1)C(=O)O)C(=O)NCC(=O)NCC(=O)N1CCC[C@H]1C(=O)N[C@@H](CO)C(=O)N[C@@H](CO)C(=O)NCC(=O)N[C@@H](C)C(=O)N1CCC[C@H]1C(=O)N1CCC[C@H]1C(=O)N1CCC[C@H]1C(=O)N[C@@H](CO)C(N)=O)[C@@H](C)CC)[C@@H](C)CC` [Example 286]?
**A.** EC50 ([1]; hGIPR EC50, nM (SEM, n), 0.1% bovine casein and 1.0% human serum albumin, 37° C.): 2.18 nM; EC50 ([2]; hGCGR EC50, nM (SEM, n), 0.1% bovine casein and 1.0% human serum albumin, 37° C.): > 9950 nM; EC50 ([2]; hGCGR EC50, nM (SEM, n), cAMP, 37° C., 0.1% bovine casein (no human serum albumin)): > 9950 nM; Emax ([3]; HEK293, read-out: hGLP-1R Emax, % ± SEM, 0.1% bovine casein and 1.0% human serum albumin, 37° C.): 90.3%; Emax ([3]; HEK293, read-out: hGLP-1R Emax, % ± SEM, cAMP, 37° C., 0.1% bovine casein, arithmetic mean): 110%

**Q.** Which results are given for `CC[C@H](C)[C@H](NC(=O)[C@H](CCCN)NC(=O)[C@H](CC(=O)O)NC(=O)[C@H](CC(C)C)NC(=O)[C@](C)(CC(C)C)NC(=O)[C@@H](NC(=O)C(C)(C)NC(=O)[C@H](Cc1ccc(O)cc1)NC(=O)[C@H](CC(=O)O)NC(=O)[C@H](CO)NC(=O)[C@@H](NC(=O)[C@](C)(Cc1ccccc1F)NC(=O)[C@@H](NC(=O)CNC(=O)[C@H](CCC(=O)O)NC(=O)C(C)(C)NC(=O)[C@@H](N)Cc1ccc(O)cc1)[C@@H](C)O)[C@@H](C)O)[C@@H](C)CC)C(=O)N[C@@H](C)C(=O)N[C@@H](CCC(N)=O)C(=O)NC(C)(C)C(=O)N[C@@H](CCCCNC(=O)COCCOCCNC(=O)CC[C@H](NC(=O)CCCCCCCCCCCCC(=O)O)C(=O)O)C(=O)N[C@@H](Cc1ccccc1)C(=O)N[C@H](C(=O)N[C@H](CCC(=O)O)C(=O)N[C@@](C)(Cc1ccc(O)cc1)C(=O)N[C@@H](CC(C)C)C(=O)N[C@H](C(=O)N[C@@H](CCC(=O)O)C(=O)NCC(=O)NCC(=O)N1CCC[C@H]1C(=O)N[C@@H](CO)C(=O)N[C@@H](CO)C(=O)NCC(=O)N[C@@H](C)C(=O)N1CCC[C@H]1C(=O)N1CCC[C@H]1C(=O)N1CCC[C@H]1C(=O)N[C@@H](CO)C(=O)N[C@@H](CCCCNC(=O)COCCOCCNC(=O)CC[C@H](NC(=O)CCCCCCCCCCCCC(=O)O)C(=O)O)C(N)=O)[C@@H](C)CC)[C@@H](C)CC` [Example 371] (H-Y[Aib]EGT[αMePhe(2-F)]TSDY[Aib]I[αMeL]LD[Orn]IAQ[Aib]K([AEEA-γGlu-C14 diacid])FI[dE][αMeY]LIEGGPSSGAPPPSK([AEEA-γGlu-C14 diacid])-NH2)?
**A.** EC50 ([1]; cAMP, 37° C., 0.1% bovine casein (no human serum albumin), read-out: hGIPR EC50, nM (SEM, n)): 0.0209 nM; EC50 ([2]; cAMP, 37° C., 0.1% bovine casein (no human serum albumin), read-out: hGCGR EC50, nM (SEM, n)): > 9950 nM; Emax ([3]; HEK293, cAMP, 37° C., 0.1% bovine casein, arithmetic mean, read-out: hGLP-1R Emax, % ± SEM): 112%; EC50 ([3]; cAMP, 37° C., 0.1% bovine casein (no human serum albumin)): 0.363 nM

**Q.** With `CC[C@H](C)[C@H](NC(=O)[C@H](CCCN)NC(=O)[C@H](CC(=O)O)NC(=O)[C@H](CC(C)C)NC(=O)[C@](C)(CC(C)C)NC(=O)[C@@H](NC(=O)[C@H](CO)NC(=O)[C@H](Cc1ccncc1)NC(=O)[C@H](CC(=O)O)NC(=O)[C@H](CO)NC(=O)[C@@H](NC(=O)[C@](C)(Cc1ccccc1F)NC(=O)[C@@H](NC(=O)CNC(=O)[C@H](CCC(=O)O)NC(=O)C(C)(C)NC(=O)[C@@H](N)Cc1ccc(O)cc1)[C@@H](C)O)[C@@H](C)O)[C@@H](C)CC)C(=O)N[C@@H](C)C(=O)N[C@@H](CCC(N)=O)C(=O)NC(C)(C)C(=O)N[C@@H](CCC(=O)O)C(=O)N[C@@H](Cc1ccccc1)C(=O)N[C@H](C(=O)N[C@@H](CCCCNC(=O)COCCOCCNC(=O)COCCOCCNC(=O)COCCOCCNC(=O)CC[C@H](NC(=O)CCCCCCCCCCCCC(=O)O)C(=O)O)C(=O)N[C@@](C)(Cc1ccc(O)cc1)C(=O)N[C@@H](CC(C)C)C(=O)N[C@H](C(=O)N[C@@H](CCCCNC(=O)COCCOCCNC(=O)COCCOCCNC(=O)COCCOCCNC(=O)CC[C@H](NC(=O)CCCCCCCCCCCCC(=O)O)C(=O)O)C(=O)NCC(=O)NCC(=O)N1CCC[C@H]1C(=O)N[C@@H](CO)C(=O)N[C@@H](CO)C(=O)NCC(=O)N[C@@H](C)C(=O)N1CCC[C@H]1C(=O)N1CCC[C@H]1C(=O)N1CCC[C@H]1C(=O)N[C@@H](CO)C(N)=O)[C@@H](C)CC)[C@@H](C)CC` [Example 226] as the molecule, how does the Emax ([1]; 37° C.) read?
**A.** The Emax was 92.1%.

**Q.** And the EC50 ([1]; cAMP, incubated at 37° C., 0.1% bovine casein (no human serum albumin), read-out: hGIPR EC50, nM (SEM, n))?
**A.** The EC50 was 0.0232 nM.

**Q.** And the EC50 [2, 4]?
**A.** The EC50 was > 9950 nM.

**Q.** And the EC50 [2, 5]?
**A.** The EC50 was > 9950 nM.

**Q.** What about the EC50 ([3]; 0.1% bovine casein and 1.0% human serum albumin, 37° C.) of the same molecule?
**A.** Its EC50 is 11.3 nM.

**Q.** What about the Emax ([3]; HEK293, 0.1% bovine casein and 1.0% human serum albumin, 37° C., read-out: hGLP-1R Emax, % ± SEM) of the same molecule?
**A.** Its Emax is 118%.
